{"source": "PubChem BioAssay AID1996", "data": [{"details": "buffer; pH 7.4; 200.0 µM", "units": {"solubility kinetic": "µg/mL"}, "values": [{"smiles": "O=S(=O)(c1ccc(Cl)cc1)N1CCC2(CC1)OCCO2", "solubility kinetic": "> 47.7"}, {"smiles": "C/C(=N/NC(=O)CNC(=O)c1ccco1)c1ccco1", "solubility kinetic": "> 41.3"}, {"smiles": "O=S(=O)(Nc1ccc(S(=O)(=O)N2CCCC2)cc1)c1ccc(F)cc1F", "solubility kinetic": "> 60.4"}, {"smiles": "CCC(CC)C(=O)Nc1ccncc1", "solubility kinetic": 10.9}, {"smiles": "COc1cccc(NC(=O)COC(=O)CCC2CCCC2)c1", "solubility kinetic": "> 45.8"}, {"smiles": "Cc1[nH]c2ccccc2c1/C=N/NC(=O)c1ccccc1", "solubility kinetic": "> 41.6"}, {"smiles": "COc1ccccc1-c1nc2cc(Cl)ccc2c(=O)n1O", "solubility kinetic": "> 45.4"}, {"smiles": "CCOC(=O)CCn1cnc2ccc([N+](=O)[O-])cc2c1=O", "solubility kinetic": 25.2}, {"smiles": "CN1CN=C(NS(=O)(=O)c2ccc([N+](=O)[O-])cc2)NC1", "solubility kinetic": "> 44.9"}, {"smiles": "O=[N+]([O-])/C=C1\\NCCN1Cc1ccc(Cl)nc1", "solubility kinetic": 35.8}, {"smiles": "CCn1c(=O)c2sccc2n(Cc2ccc(C)cc2)c1=O", "solubility kinetic": 0.4}, {"smiles": "O=C(O)c1csc(-c2cccc(Cl)c2)n1", "solubility kinetic": 33.9}, {"smiles": "CC1CCN(CCc2nc3ccccc3[nH]2)CC1", "solubility kinetic": 33.7}, {"smiles": "CCC(=NCCc1ccccc1)c1c(O)n(C)c(=O)n(C)c1=O", "solubility kinetic": 42.3}, {"smiles": "FC(F)(F)c1cccc(N2CCN(C3CC4CCC3C4)CC2)c1", "note": "(stereo unspecified)", "solubility kinetic": 1.4}, {"smiles": "COc1ccc(CNC(=S)Nc2ccccc2F)cc1", "solubility kinetic": 34}, {"smiles": "CN(C(=O)c1ccco1)c1ccccc1C(=O)O", "solubility kinetic": "> 36.8"}, {"smiles": "CCOc1ccccc1NC(=O)c1ccccc1N(C)S(=O)(=O)c1ccc(C)cc1", "solubility kinetic": 3.2}, {"smiles": "O=C(CCc1ccccc1)N1CCN(c2ccc(F)cc2)CC1", "solubility kinetic": "> 46.9"}, {"smiles": "Cc1ccc(NC(=O)Nc2cc(C(F)(F)F)c[nH]c2=O)cc1", "solubility kinetic": 0.4}, {"smiles": "COc1ccc2cc(C(N)=O)c(=Nc3ccc(C)cc3)oc2c1", "solubility kinetic": "< 0.3"}, {"smiles": "CCCN1CN=C(Nc2nc3ccccc3o2)NC1", "solubility kinetic": 18.9}, {"smiles": "O=Cc1c(C(=O)O)n(Cc2ccc(F)cc2Cl)c2ccccc12", "solubility kinetic": "> 49.8"}, {"smiles": "COc1ccc(OC)c(NC(=O)CCn2ccnc2)c1", "solubility kinetic": 38.9}, {"smiles": "Cc1cc(C(C)(C)C)oc1C(=O)OCC(=O)NC1CCCCC1", "solubility kinetic": 1.1}, {"smiles": "COCCN(CC(=O)Nc1cccc(C)c1C)C(=O)C1(c2ccccc2)CC1", "solubility kinetic": "> 57.1"}, {"smiles": "CN(C)c1cc(Nc2cccc(O)c2)c([N+](=O)[O-])c2nonc12", "solubility kinetic": 0.4}, {"smiles": "CSc1ccccc1NC(=O)CSc1cccc[n+]1[O-]", "solubility kinetic": "> 46"}, {"smiles": "CC(C)(C)C(=O)OCc1nc(-c2ccc(F)cc2)cs1", "solubility kinetic": "< 0.6"}, {"smiles": "COc1cccc(C(=O)NCCCn2ccnc2)c1", "solubility kinetic": "> 38.9"}, {"smiles": "CN(CCO)c1cc(N(C)CCO)c([N+](=O)[O-])cc1[N+](=O)[O-]", "solubility kinetic": 42.1}, {"smiles": "CC1CCC(N(C)C2CCN(C)CC2)CC1", "note": "(stereo unspecified)", "solubility kinetic": 22.4}, {"smiles": "CC(C)(C)/C(COc1ccccc1[N+](=O)[O-])=N/O", "solubility kinetic": 20.6}, {"smiles": "CNCC(=O)Nc1ccc(OC(F)(F)F)cc1.Cl", "solubility kinetic": 41.4}, {"smiles": "Cc1ccc(C2CC3CCC(C2)N3Cc2ccccc2F)cc1", "note": "(stereo unspecified)", "solubility kinetic": 26.8}, {"smiles": "Brc1ccc2ncnc(NCc3cccnc3)c2c1", "solubility kinetic": 34.3}, {"smiles": "CCCCN(C(=O)C1COc2ccccc2O1)c1c(N)n(CCC)c(=O)[nH]c1=O", "note": "(stereo unspecified)", "solubility kinetic": "> 60.4"}, {"smiles": "O=C(CCCNC(=O)c1ccc(Cl)cc1)Nc1nccs1", "solubility kinetic": 10.3}, {"smiles": "Cc1ccc(CN2CCCN(C)CC2)c(C)c1", "solubility kinetic": 23.4}, {"smiles": "CC(=O)N1CCC[C@H]1C(=O)O", "solubility kinetic": "> 23.6"}, {"smiles": "CC(=O)c1ccc2noc(-c3ccccc3)c2c1", "solubility kinetic": 31.8}, {"smiles": "COc1ccc(C(=O)COC(=O)c2ccccn2)c(OC)c1", "solubility kinetic": "> 45.2"}, {"smiles": "O=C(Cc1nc2ccccc2[nH]1)c1ccc([N+](=O)[O-])cc1", "solubility kinetic": 37.8}, {"smiles": "Cc1[nH]c2ccccc2c1C(=O)C(=O)N1CCN(C)CC1", "solubility kinetic": "> 42.8"}, {"smiles": "Cc1ccsc1C(=O)OCC(=O)N1CCN(c2ccccc2)CC1", "solubility kinetic": "> 51.7"}, {"smiles": "CCc1ccc(C(C)NC(=S)NC2CCCCC2)cc1", "note": "(stereo unspecified)", "solubility kinetic": 11.4}, {"smiles": "O=C(O)c1ccccn1", "solubility kinetic": "> 18.5"}, {"smiles": "O=C(Nc1ccc(F)cc1)c1ccc2ncsc2c1", "solubility kinetic": 10.3}, {"smiles": "COc1ccc(Oc2ccc(C(F)(F)F)cc2NC(=O)c2ccc(F)cc2)cc1", "solubility kinetic": "< 0.9"}, {"smiles": "Clc1cccc2c1CCN(Cc1nc(-c3cnccn3)no1)C2", "solubility kinetic": 33.9}, {"smiles": "O=C(Nc1ccc2c(c1)OCO2)c1cnccn1", "solubility kinetic": 19.5}, {"smiles": "COc1cc(C(F)(F)F)c(C(=O)NCc2cccc(Cl)c2)cn1", "solubility kinetic": 5.3}, {"smiles": "O=[N+]([O-])c1cccc2c(N3CCCC3)ccnc12", "solubility kinetic": "> 36.5"}, {"smiles": "Cc1ccccc1NC(=S)NC(=O)COc1ccccc1C", "solubility kinetic": 1.1}, {"smiles": "CNC(=S)N1C2CCCC1CC(NC(=O)c1ccc(F)cc1)C2", "note": "(stereo unspecified)", "solubility kinetic": 21.8}, {"smiles": "CCCOCCc1nnc(N)s1", "solubility kinetic": "> 28.1"}, {"smiles": "Cn1c(SCC#N)nc2ccccc2c1=O", "solubility kinetic": 30.2}, {"smiles": "CC(=O)Nc1ccc(S(=O)(=O)Nc2ccn(Cc3ccccc3Cl)n2)cc1", "solubility kinetic": "> 60.7"}, {"smiles": "CC(C)CC1NC(=O)N(CC(=O)Nc2ccc3c(c2)CCC3)C1=O", "note": "(stereo unspecified)", "solubility kinetic": 5.6}, {"smiles": "COc1ccc(CCC(=O)NCc2cccc(C(F)(F)F)c2)cc1", "solubility kinetic": 10.3}, {"smiles": "CCOC(=O)CC(NC(=O)c1ccccc1F)c1ccc(C)cc1", "note": "(stereo unspecified)", "solubility kinetic": 34.5}, {"smiles": "Cc1c(C)c(C)c2[nH]c(-c3ccc4c(c3)OCO4)nc2c1C", "solubility kinetic": "< 0.3"}, {"smiles": "CC1=C(C(=O)OC2CCCCC2)C(c2ccc(O)cc2)NC(=O)N1", "note": "(stereo unspecified)", "solubility kinetic": "> 49.6"}, {"smiles": "O=[N+]([O-])c1cccc2c(S(=O)(=O)N3CCOCC3)cccc12", "solubility kinetic": 35.4}, {"smiles": "CC(CN1CCCC1)OC(=O)Cc1ccc(Cl)cc1.Cl", "note": "(stereo unspecified)", "solubility kinetic": "> 47.7"}, {"smiles": "O=C(CCNC(=O)c1ccco1)NCc1ccc(C(=O)O)cc1", "solubility kinetic": "> 47.4"}, {"smiles": "CCN(CC)/C(=N\\S(=O)(=O)c1ccc(F)cc1)c1ccccc1", "solubility kinetic": "> 50.2"}, {"smiles": "COC(=O)Nc1nc2ccc(C(=O)c3cccs3)cc2[nH]1", "solubility kinetic": 0.3}, {"smiles": "COC(=O)c1ccc(N2CCc3ccccc32)c([N+](=O)[O-])c1", "solubility kinetic": 1}, {"smiles": "CSc1nccn1C(=O)c1ccccc1[N+](=O)[O-]", "solubility kinetic": "> 39.5"}, {"smiles": "CC(=O)Nc1ccc(S(=O)(=O)NC(C)CCc2ccccc2)cc1", "note": "(stereo unspecified)", "solubility kinetic": "> 52"}, {"smiles": "COc1ccccc1/C=C/C(=O)N1CCN(S(=O)(=O)c2cccs2)CC1", "solubility kinetic": 23.7}, {"smiles": "CN(C)/C=C1\\N=C(c2cccnc2Oc2ccc(Cl)cc2)OC1=O", "solubility kinetic": 1.6}, {"smiles": "COc1ccc(CC(=O)OCc2csc(CC(=O)Nc3ccc(C)cc3)n2)cc1", "solubility kinetic": 4.8}, {"smiles": "N/C(=N\\OC(=O)CSc1ccccc1)c1ccccn1", "solubility kinetic": "> 43.1"}, {"smiles": "Cn1c(SCc2cccc(C#N)c2)nc2ccccc2c1=O", "solubility kinetic": 0.4}, {"smiles": "CC1CCCC(C)N1C(=O)CSc1nccc(=O)[nH]1", "note": "(stereo unspecified)", "solubility kinetic": 29.3}, {"smiles": "COC(=O)c1ccccc1NC(=S)N1CCOCC1", "solubility kinetic": 40.1}, {"smiles": "CCc1ccccc1OCCCN1CCCC1.O=C(O)C(=O)O", "solubility kinetic": 43.9}, {"smiles": "Cc1cc(C)n2nc(C(=O)NNC(=O)c3ccccc3)nc2n1", "solubility kinetic": "> 46.5"}, {"smiles": "CC(C)(C)N=Cc1c(O)ccc2oc3c(c12)CCCC3", "solubility kinetic": 6.5}, {"smiles": "Cc1onc(-c2ccccc2)c1C(=O)N=C(N)c1ccc(Cl)cc1", "solubility kinetic": 1.1}, {"smiles": "Cc1cc(C(=O)NCc2cccc(Cl)c2)c2ccccc2n1", "solubility kinetic": 5.3}, {"smiles": "COc1ccccc1C(=O)OCCN=C1NS(=O)(=O)c2ccccc21", "solubility kinetic": "> 54.1"}, {"smiles": "COc1ccc(-c2nc3c(s2)CN(S(C)(=O)=O)CC3)cc1OC", "solubility kinetic": 10.6}, {"smiles": "O=C(CN1C(=O)NC(Cc2c[nH]c3ccccc23)C1=O)Nc1ccc(F)cc1F", "note": "(stereo unspecified)", "solubility kinetic": 19}, {"smiles": "CCCC(=O)N(Cc1cc(=O)[nH]c2ccccc12)c1ccccc1C", "solubility kinetic": 41.1}, {"smiles": "COc1ccccc1N1CCN(S(=O)(=O)c2ccc(Cl)cc2)CC1", "solubility kinetic": 4}, {"smiles": "O=C(/C=C/c1cccc(C(F)(F)F)c1)OCC(=O)N1CCN(c2ccccc2)CC1", "solubility kinetic": 3.7}, {"smiles": "CCc1cc(=S)n2c([nH]c3ccccc32)c1C#N", "solubility kinetic": 32.6}, {"smiles": "CCN1CCCC1CNC(=O)c1cc2ccc(OC)cc2[nH]1", "note": "(stereo unspecified)", "solubility kinetic": "> 45.2"}, {"smiles": "NS(=O)(=O)c1ccc(NC(=O)CN2C(=O)CCC2=O)cc1", "solubility kinetic": "> 46.7"}, {"smiles": "O=C(Nc1nc2ccccc2[nH]1)c1cccc(Cl)c1", "solubility kinetic": "< 0.2"}, {"smiles": "O=C1Nc2ccccc2C1=Nc1cccc(Cl)c1", "solubility kinetic": 28.2}, {"smiles": "COc1ccccc1NCCC(=O)O", "solubility kinetic": "> 29.3"}, {"smiles": "CCN(Cc1ccc(Cl)s1)C(=O)c1cccc(OCc2c(C)noc2C)c1", "solubility kinetic": 16.4}, {"smiles": "CC1CC(=O)Nc2ccccc2N1C(=O)Nc1ccc(F)cc1", "note": "(stereo unspecified)", "solubility kinetic": "> 47"}, {"smiles": "COc1ccc(S(=O)(=O)n2cnc3ccccc32)c(C)c1", "solubility kinetic": 17}, {"smiles": "C/C(=N\\NC(=O)c1ccccc1C)c1cccnc1", "solubility kinetic": "> 38"}, {"smiles": "O=c1cc(N2CCCC2)c2ccccc2o1", "solubility kinetic": "> 32.3"}, {"smiles": "Brc1cccc(-c2cnco2)c1", "solubility kinetic": 4}, {"smiles": "N#CCOc1coc(CN2CCN(c3ccccc3)CC2)cc1=O", "solubility kinetic": "> 48.8"}, {"smiles": "CC(=O)N(C)c1ccc(NC(=O)N2CCOCC2)cc1", "solubility kinetic": 41.5}, {"smiles": "CSc1ncccc1C(=O)OC(C)C(=O)Nc1cccc(S(=O)(=O)N2CCOCC2)c1", "note": "(stereo unspecified)", "solubility kinetic": 8.4}, {"smiles": "COc1ccc(-n2c(C)c(C)c3c(NCCN(C)C)ncnc32)cc1", "solubility kinetic": "> 50.9"}, {"smiles": "O=S(=O)(Nc1ccon1)c1ccc(Br)s1", "solubility kinetic": 31.3}, {"smiles": "NS(=O)(=O)c1ccc(Sc2nc3ccccc3s2)c([N+](=O)[O-])c1", "solubility kinetic": 1.7}, {"smiles": "COc1ccc(CCNC(=O)Oc2ccccc2)cc1OC", "solubility kinetic": 42.9}, {"smiles": "CCOc1ccccc1NC(=O)Cc1coc2ccc(C)cc12", "solubility kinetic": 7.3}, {"smiles": "O=C(Nc1ccc2c(c1)OCO2)C1CC(c2ccccc2O)=NO1", "note": "(stereo unspecified)", "solubility kinetic": 1.4}, {"smiles": "COc1ccc(NC(=S)Nc2cccc3cnccc23)cc1", "solubility kinetic": 9.9}, {"smiles": "CCN(CC(=O)NCc1ccco1)S(=O)(=O)c1ccc(OC)cc1", "solubility kinetic": "> 52.9"}, {"smiles": "Cc1[nH]c2ccccc2c1C(C[N+](=O)[O-])c1ccco1", "note": "(stereo unspecified)", "solubility kinetic": 37.9}, {"smiles": "O=C(CNC(=O)c1ccc(Cl)cc1)N/N=C/c1cccnc1", "solubility kinetic": "> 47.5"}, {"smiles": "Cc1occc1C(=O)O/N=C(\\N)c1ccc(Cl)cc1", "solubility kinetic": 9.1}, {"smiles": "COC(=O)c1nc(-c2ccccc2)oc1N1CCOCC1", "solubility kinetic": "> 43.2"}, {"smiles": "CN(C)NC(=S)NC1(C)CCS(=O)(=O)C1", "note": "(stereo unspecified)", "solubility kinetic": "> 37.7"}, {"smiles": "Cc1cc(C)nc(SCC(=O)N(C)C)n1", "solubility kinetic": 31.7}, {"smiles": "COc1ccc(OC)c(Nc2nc(N)nc(CCl)n2)c1", "solubility kinetic": 22.4}, {"smiles": "Cc1cccc(C(=O)NCC(=O)N2CCC2)c1", "solubility kinetic": "> 34.8"}, {"smiles": "COc1ccc(/C=C2\\SC(=N)N(c3ccc(F)cc3)C2=O)cc1OC", "solubility kinetic": 3.8}]}]}
